According to patent US8227510B2, “Combine use of pterostilbene and quercetin for the production of cancer treatment medicaments” (Universitat de Valencia, priority 2004, dated 2012):
Marks after values point to notes of the source that are not given here.

How the values were obtained:
B16M-F10/Tet-Bcl-2 cells = assay: In vivo microscopy: B16M-F10/Tet-Bcl-2 cells adhering to the HSE and intact cells; set-up: species or system mice; conditions: for Intact cells: B16M-F10/Tet-Bcl-2, 6 hours postinjection, none 85 ± 13; for Number of cells adhering to the HSE: B16M-F10/Tet-Bcl-2 precultured with polyphenols, 60 minutes postinjection, none 42 ± 6
Method: (§1) Hepatic metastases were induced by i.v. inoculations (portal vein), in anesthetized mice (Nembutal, 50 mg/kg i.p.), of 4×10^5 viable B16M-F10 cells suspended in 0.2 ml of DMEM. The mice were sacrificed by cervical dislocation 10 days after inoculation. The livers were fixed by immersion for 24 hours at 22° C. in 10% formaldehyde in PBS (pH 7.4), and were subsequently embedded in paraffin. The density of metastases (average number of foci/100 mm^3 of liver detected in fifteen sections of 10×10 mm^2 per liver) and the volume of metastases (average percentage of liver volume occupied by metastases) were determined as described previously (22).
(§2) This methodology makes it possible for the effect of PTER and QUER to be studied in vivo. For this purpose, mice were inoculated with B16M-F10 control cells or B16M-F10/Tet-Bcl-2 which overexpressed Bcl-2. Both subgroups of cells were cultivated beforehand in the absence or in the presence of t-PTER and QUER. B16M-F10 cells were cultivated for 72 hours. t-RESV (12 μM), t-PTER (40 μM), and QUER (20 μM) were added at 6, 30 and 54 hours of culture time, and were present in each case for just 60 minutes. Then they were removed from the culture flasks by washing (3 times with PBS) and the medium was renewed. The levels of Bcl-2 in the B16M-F10 control cells and cells treated with Tet-Bcl-2 were 24±5 and 105±14 units/mg of protein, respectively (n=5 in each case, P<0.01). The number of adhering cells shown in the table was calculated at 60 minutes postinjection (no significant differences were found when the measurements were effected at 30, 120, 180, 240 or 360 minutes postinjection, data not shown). The number of intact cells was calculated at 6 hours postinjection. The experimental microscopy data in vivo are mean values±SD corresponding to 4-5 different experiments. The growth of metastases in the liver was evaluated as stated in the corresponding section of the description, and in this case the mice were treated daily (×10 days) with t-PTER and/or QUER (20 mg/kg of body weight) administered i.v. (the data are mean values±SD corresponding to 25 mice per group). A similar method and equal number of mice per group were used for evaluating the survival of the carrier animals. The test of significance relates, in all the groups, to comparison between cases with PTER and/or QUER and cases without additions (*P<0.05 and **P<0.01), and to comparison between the B16M-F10/Tet-Bcl-2 cells with the B16M-F10 control cells (^+P<0.05, ^++P<0.01). […] This is the first time that the combined administration in vivo of natural polyphenols has induced inhibition of metastatic growth of a highly malignant tumor and an increase in the survival of the carrier.

Bcl-2 [1] = assay: Intracellular levels of Bcl-2 in B16M-F10 cells (enzyme immunoassay); format: cell-based, mouse; conditions: t-PTER 40 μM, QUER 20 μM, 60 minutes at 6, 30 and 54 hours, none 35 ± 5
From the text: (§3) The Tet-off gene expression system (Clontech, Palo Alto, Calif., USA) was used for inserting the mouse bcl-2 gene and transfecting the B16M-F10 cells, as described previously (26) and following the manufacturer's instructions. The protein Bcl-2 was quantified in the soluble cytosolic fraction by enzyme immunoassay (27) using a test based on a monoclonal antibody from Sigma (San Luis, Mo., USA) (a Bcl-2 unit was defined as the amount of Bcl-2 protein in 1000 non-transfected B16M-F10 cells).
(§4) This methodology makes it possible for the effect of PTER and QUER to be studied in vivo. For this purpose, mice were inoculated with B16M-F10 control cells or B16M-F10/Tet-Bcl-2 which overexpressed Bcl-2. […] The number of adhering cells shown in the table was calculated at 60 minutes postinjection (no significant differences were found when the measurements were effected at 30, 120, 180, 240 or 360 minutes postinjection, data not shown). The number of intact cells was calculated at 6 hours postinjection. […] The growth of metastases in the liver was evaluated as stated in the corresponding section of the description, and in this case the mice were treated daily (×10 days) with t-PTER and/or QUER (20 mg/kg of body weight) administered i.v. (the data are mean values±SD corresponding to 25 mice per group). […]

B16M-F10 cells = assay: In vivo microscopy: B16M-F10 cells adhering to the HSE and intact cells; set-up: species or system mice; conditions: for Intact cells: B16M-F10, 6 hours postinjection, none 83 ± 14; for Number of cells adhering to the HSE: B16M-F10 precultured with polyphenols, 60 minutes postinjection, none 45 ± 7
Method: as §1, §2

B16M-F10/Tet-Bcl-2 = assay: Survival of mice carrying B16M-F10/Tet-Bcl-2 metastases; format: in vivo; conditions: 20 mg/kg i.v. daily, none 12 ± 1
Method: as §1
as §4, with “vivo.” for “vivo. For this purpose, mice were inoculated with B16M-F10 control cells or B16M-F10/Tet-Bcl-2 which overexpressed Bcl-2.”

Bcl-2 [2] = assay: Intracellular levels of Bcl-2 in B16M-F10/Tet-Bcl-2 cells (enzyme immunoassay); format: cell-based, mouse; conditions: same exposure, none 160 ± 25
From the text: as §3, §4

B16M-F10 = assay: Growth of hepatic metastases of B16M-F10 in mice; format: in vivo; conditions: 20 mg/kg i.v. daily x10 days; for Volume of metastases: none 22 ± 4; for Density of metastases: none 27 ± 5
Method: as §1, §2

Compound	Intact cells (B16M-F10/Tet-Bcl-2 cells)	Number of cells adhering to the HSE (B16M-F10/Tet-Bcl-2 cells)	Intracellular levels of Bcl-2 before inoculation (Bcl-2 [1])	Intact cells (B16M-F10 cells)	Number of cells adhering to the HSE (B16M-F10 cells)	Survival of the carrier (B16M-F10/Tet-Bcl-2) [days]	Intracellular levels of Bcl-2 before inoculation (Bcl-2 [2])	Volume of metastases (B16M-F10)	Density of metastases (B16M-F10)
O=c1c(O)c(-c2ccc(O)c(O)c2)oc2cc(O)cc(O)c12 [QUER, quercetin]	87 ± 13^++ percentage of cells adhering t	40 ± 7 average number per lobe	9 ± 3** units/mg protein	52 ± 8** percentage of cells adhering t	46 ± 9 average number per lobe	13 ± 2	125 ± 13*^++ units/mg protein	12 ± 3** percentage of liver volume	15 ± 4** number of foci/100 mm^3
COc1cc(/C=C/c2ccc(O)cc2)cc(OC)c1 [PTER, pterostilbene]	91 ± 20 percentage of cells adhering t	21 ± 4** average number per lobe	21 ± 4** units/mg protein	85 ± 17 percentage of cells adhering t	20 ± 5** average number per lobe	12 ± 2	151 ± 18^++ units/mg protein	14 ± 4** percentage of liver volume	18 ± 4** number of foci/100 mm^3
